# Laboratory results published in patent publication US5147876A, “2,6-di,2,4,6-, 2,5,6-tri and 2,4,5,6-tetra-substituted pyrimidines, their pharmaceutically acceptable salts, pharmaceutical compositions containing same and their use in the treatment of neurological diseases” (Mitsui Petrochemical Industries, Ltd., priority 1988, dated 1992).
# How the values were obtained:
# [1] = test system: neuro-2a (mouse neuroblastoma cells); experiment: Action on neuro-2a: proportion of cells containing outgrown neurites; type: cell-based; details: mean ± S.D.
# Experimental: (§1) The effects of the compounds of this invention on neuroblastoma cells were examined by the following method.
# (§2) Mouse neuro 2a cells in the logarithmic growth period in the Dulbecco's modified Eagle's medium DMEM, containing 100 units/ml of penicillin G sodium and 100 micrograms/ml of streptomycin sulfate]containing 10 % of FCS were seeded in a 48-well plate so that the number of cells was 1,000 cells/well, and cultured for one day in 0.25 ml of the culture fluid in each well in an incubator containing 5 % of carbon dioxide gas in air at 37° C. Then, a 4 % aqueous glutaraldehyde solution in the same amount as a medium (0.25 ml) was added, and the culture fluid was left to stand at room temperature for 2 hours to fix the cells. After washing with water, a 0.05 % aqueous solution of methylene blue was added to stain the cells Under a microscope, the number of cells containing outgrown neurites (cells having at least one neurite with a length of at least two times as large as the long diameter of the cell) was counted visually, and the proportion of these cells in the entire cells was calculated. The well was observed over 5 or more visual fields (at least 2 % of the entire surface area of the well) continuous to the left and right from a mark put at the center of the well, and more than 200 cells was counted. One drug compound was used in 6 different concentrations at most, and three runs were conducted for each concentrations.
# Acute toxicity on mice = type: in vivo; details: mouse, in vivo, ip, 24 hours after administration; read-out: Estimated LD50
# Experimental: The acute toxicity of the compounds of the invention was examined by the following method.
# Male ddy-strain 5-week old mice, 4-6- per group, were used as experimental animals. Each of the compounds was intraperitoneally (i.p.), and the toxicity of the compound was assessed 24 hours after the administration.
# [2] = test system: NS-20Y (mouse neuroblastoma cells); experiment: Activity on NS-20Y cells: appearance of neurites; type: cell-based
# Experimental: as §1, §2
# Mouse neuroblastoma cells NS-20Y were similarly cultured in a dish coated with polyornithine, and the effects of the compounds were examined.
Structure (SMILES),Number of cells having neurites with a length at least two times the diameter of each cell/total number of cells ([1]; 0.03 mM),Number of cells having neurites with a length at least two times the diameter of each cell/total number of cells ([1]; 0.1 mM),LD50 at 24 h (Acute toxicity on mice),Number of cells having neurites with a length at least two times the diameter of each cell/total number of cells ([1]; 0.3 mM),Number of cells having neurites with a length at least two times the diameter of each cell/total number of cells ([1]; 1 mM),Number of cells having neurites with a length at least two times the diameter of each cell/total number of cells ([1]; 0.01 mM),"Number of cells in which neurites appeared/total number of cells ([2]; 24 hours, 0.4 mM)","Number of cells in which neurites appeared/total number of cells ([2]; 48 hours, 0.02 mM)"
CCN(CC)C(=O)N(C)c1ccnc(N2CCC(c3ccccc3)CC2)n1 [Compound 2302],8.0 ± 2.7%,8.2 ± 4.7%,500 to 1000 mg/kg,,,,,
CN(Cc1ccccc1)c1ccnc(N2CCC(c3ccccc3)CC2)n1 [Compound 2278],13.9 ± 6.3%,12.5 ± 1.3%,500 to 1000 mg/kg,,,,,
CN(C(=O)c1ccccc1)c1ccnc(N2CCC(C)(C)CC2)n1 [Compound 2116],,34.2 ± 3.8%,500 to 1000 mg/kg,8.2 ± 3.6%,,,,
CC1CCCCN1c1nccc(N(C)C(=O)c2ccccc2)n1 (stereo not shown) [Compound 154],5.2 ± 1.5%,16.2 ± 2.1%,> 1000 mg/kg,,,,,
CN1CCN(c2nccc(N(C)C(=O)c3ccccc3)n2)CC1 [Compound 352],,3.2 ± 1.9%,500 to 1000 mg/kg,9.9 ± 1.6%,,,,
CCOC(=O)N(C)c1ccnc(N2CCC(c3ccccc3)CC2)n1 [Compound 2242],3.3 ± 0.9%,24.8 ± 2.9%,500 to 1000 mg/kg,,,,,
CC(=O)N(C)c1ccnc(N2CCc3ccccc3C2)n1 [Compound 312],4.5 ± 0.4%,9.7 ± 0.9%,> 1000 mg/kg,,,,,
CN(C(=O)c1ccccc1)c1ccnc(N2CCC(C(=O)c3ccc(Cl)cc3)CC2)n1 [Compound 2310],,8.3 ± 1.8%,500 to 1000 mg/kg,12.1 ± 3.6%,,,,
CN(C(=O)c1ccccc1)c1ccnc(NC2CN3CCC2CC3)n1 (stereo not shown) [Compound 2342],5.9 ± 2.1%,11.4 ± 1.4%,500 to 1000 mg/kg,,,,,
CN1C(=O)Cc2cnc(N3CCN(C(c4ccc(Cl)cc4)c4ccc(Cl)cc4)CC3)nc21 [Compound 3176],7.3 ± 3.3%,23.1 ± 4.8%,500 to 1000 mg/kg,21.2 ± 4.9%,14.6 ± 5.0%,,,
CCOc1ccc(C(=O)N(C)c2ccnc(N3CCC(c4ccccc4)CC3)n2)cc1 [Compound 171-5],,28.4 ± 2.2%,> 1000 mg/kg,32.7 ± 0.6%,14.0 ± 4.1%,7.2 ± 1.1%,,
CN(C(=O)c1cccnc1)c1ccnc(N2CCC(c3ccccc3)CC2)n1 [Compound 2140],5.4 ± 3.9%,17.0 ± 1.2%,> 1000 mg/kg,,,,,
CNc1cc(C)nc(N2CCCCC2)n1 [Compound 1086],1.9 ± 1.8%,3.1 ± 1.3%,,8.7 ± 0.8%,17.4 ± 1.1%,,4/50,2/50
